{"source": "patent US20070036810A1", "about": "“Cyclic amp response element activator proteins and uses related thereto” (priority 2003, published 2007)", "format_in_all_cases": "cell-based", "key": {"[1]": {"tested_on": "secreted IL-8 protein from HeLa cells", "assay": "IL-8 Elisa assay in HeLa cells", "conditions": "after transfection", "method": "HeLa cells are transfected with DNA samples selected from the group of sequence verified and confirmed hits at 100 ng per well in 96 well plates (Costar) using the protocol described above. DNA samples designated as co-activators are co-transfected at 25 ng per well. Empty vector pCMV-Sport6 is used as a negative control. 72 hours post-transfection IL-8 content is measured in the cell growth media in prediluted aliquots corresponding to 1 to 5 μl of conditioned growth media using an IL-8 Elisa kit (Sigma) following the provided protocol. As a positive control, growth media is collected from the cells transfected with empty vector and treated with IL-1β and TNFα (R&D Systems) at 5 ng/ml and 50 ng/ml respectively for 16 hours prior to collection of the growth media for the IL-8 assay."}, "human IL-8 promoter": {"tested_on": "human IL-8 promoter", "assay": "pGL2-IL-8p-Luc reporter inducibility in HEK 293 cells", "conditions": "HEK 293 cells treated with 50 ng/ml for 16 hours", "method": "A luciferase reporter controlled by a 1.5 kB IL-8 promoter containing fragment of human IL-8 promoter was tested for inducibility by known regulators of cytokine-mediated gene expression. pNF-κB-Luc (BD Biosciences) and pGL2-IL-8p-Luc reporters were co-transfected into HEK 293 cells with expression constructs encoding known activators of the NF-κB pathway, truncated MEKK (AA 360-672) (Stratagene) and a full length TRAF6 cDNA made according to conventional methods using a proprietary clone collection. Cells co-transfected with empty pCMV-Sport6 vector were either left untreated or treated with TNFα (50 ng/ml, for 16 hours). Luciferase activity was measured 48 hours post transfection. The pNF-κB-Luc reporter was used as a positive control."}, "[2]": {"tested_on": "GAL4 DNA binding sites (UAS-Luc, pFR-Luc reporter)", "assay": "GAL4 DNA binding domain fusion transactivation assay (pFR-Luc) in HEK 293 cells", "conditions": "normalized to pCMV-BD vector", "from_the_text": "To determine if CREAP proteins can act as a transcription activators, various regions of all 3 CREAP homologs (amino acids 300-650 of CREAP1, amino acids 296-694 of CREAP2 and amino acids 335-635 of CREAP3) were expressed as fusion proteins with the DNA binding domain of GAL4 and tested for the ability to activate expression of a reporter gene linked to GAL4 protein binding sequences (UAS-Luc (pFR-Luc reporter). Briefly, the indicated regions of CREAP1, CREAP2 and CREAP3 were amplified by PCR and subcloned in frame into pCMV-BD vector (Stratagene) encoding GAL4 DNA binding domain. Selected plasmids and empty vector (pCMV-SPORT6) were transfected into HEK 293 cells at 75 ng/well using Fugene6 transfection reagent (Roche) as described above. pFR-Luc reporter (Stratagene) encoding firefly luciferase gene driven by minimal promoter linked to 5 concatamerized GAL4 binding sites (UAS) was co-transfected at 100 ng/well. As a positive control, the reporter was also co-transfected with a plasmid encoding GAL4-CREB fusion protein (Stratagene) alone or in the presence of pFC-PKA an expression construct encoding catalytic subunit of protein kinase A (Stratagene) to activate the CREB kinase inducible activation domain. Fold induction was compared to the reporter's activity measured in the cells transfected with pCMV-BD an expression vector carrying GAL4 DNA binding domain only. […]"}, "GAL4-CREB fusion protein": {"tested_on": "GAL4-CREB fusion protein", "assay": "GAL4-CREB activation assay in HLR cell line", "conditions": "HLR cell line with integrated pFR-Luc reporter, normalized to pCMV-BD vector", "method": "To determine if CREAP proteins can directly activate CREB1 protein, the expression constructs of CREAP1, CREAP2 and CREAP3 were transfected individually or with GAL4-CREB plasmid (Stratagene) into HLR cell line (Stratagene) carrying genomic DNA integrated copies of pFR-Luc reporter. Briefly, HLR cells were maintained per manufacturer's instructions. Selected plasmids and either empty vector (pCMV-BD) or GAL4-CREB plasmid were transfected at 75 ng/well using Fugene6 transfection reagent (Roche) as described above. As a positive control pFC-PKA an expression construct encoding catalytic subunit of protein kinase A (Stratagene) was also co-trasfected with GAL4-CREB. Fold of activation was compared to the reporter's activity measured in the cells transfected with empty vector.\nThe ability of full length CREAP1, CREAP2 and CREAP3 to induce the activity of GAL4-CREB fusion protein (Stratagene) was tested. The data presented are normalized to the value seen with pCMV-BD vector. […] Note the fold induction obtained with positive control is lower when compared to the data from Table 6 when all the plasmids including the reporter were transiently transfected."}}, "data": [{"substance": "relA: subunit of NF-κB transcription factor, expression construct [reference compound]", "values": [{"measurement": "accumulation of secreted IL-8 protein", "setting": "[1]", "value": "induced small increases"}]}, {"substance": "TNFα [reference compound]", "values": [{"measurement": "increase of IL-8 promoter-reporter activity", "setting": "human IL-8 promoter", "value": 4.7, "unit": "times"}]}, {"substance": "GAL4-CREB: plasmid encoding GAL4-CREB fusion protein (Stratagene) [reference compound]", "values": [{"measurement": "Fold Induction", "setting": "[2]", "value": 7.66}, {"measurement": "Fold Induction", "setting": "GAL4-CREB fusion protein", "value": 75.55}]}]}
